Assay results: patent US10927106B2, “Benzothiazole derivatives as DYRK1 inhibitors” (PHARMASUM THERAPEUTICS AS, priority 2017, dated 2021)

Assays:
[1] = system: PINK; conditions: 1 micromolar inhibitor concentration
Procedure: (§3) The determination of protein kinase inhibition was performed at the International Centre for Kinase Profiling at the University of Dundee, UK. […] The ATP concentrations were at or below the calculated Km for ATP for each particular kinase.

[2] = molecular target: EPH-B4 (Homo sapiens (Human), UniProt P54760); assay: Kinase profiling, 33P ATP filter binding assay; assay type: biochemical; conditions: 1 micromolar inhibitor concentration, read-out: percentage inhibition
[3] = molecular target: CHK1 (Homo sapiens (Human), UniProt O14757); assay: Kinase profiling, 33P ATP filter binding assay; assay type: biochemical; conditions: 1 micromolar inhibitor concentration, read-out: percentage inhibition
CHK1, sequence (O14757 whole entry, species assumed): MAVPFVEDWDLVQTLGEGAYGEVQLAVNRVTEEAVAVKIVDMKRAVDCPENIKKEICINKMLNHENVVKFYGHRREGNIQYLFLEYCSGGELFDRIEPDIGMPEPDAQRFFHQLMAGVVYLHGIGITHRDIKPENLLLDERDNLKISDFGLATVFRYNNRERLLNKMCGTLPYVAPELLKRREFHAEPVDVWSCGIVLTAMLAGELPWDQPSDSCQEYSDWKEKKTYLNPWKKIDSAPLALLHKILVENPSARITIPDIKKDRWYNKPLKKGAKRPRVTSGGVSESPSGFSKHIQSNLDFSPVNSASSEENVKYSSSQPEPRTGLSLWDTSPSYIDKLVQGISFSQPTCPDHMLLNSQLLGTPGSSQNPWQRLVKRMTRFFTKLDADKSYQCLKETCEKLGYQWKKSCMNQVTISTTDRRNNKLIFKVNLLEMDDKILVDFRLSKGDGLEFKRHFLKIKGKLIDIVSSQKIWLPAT

[4] = molecular target: MELK (Homo sapiens (Human), UniProt Q14680); assay: Kinase profiling, 33P ATP filter binding assay; assay type: biochemical; conditions: 1 micromolar inhibitor concentration, read-out: percentage inhibition
MELK, sequence (Q14680 whole entry, species assumed): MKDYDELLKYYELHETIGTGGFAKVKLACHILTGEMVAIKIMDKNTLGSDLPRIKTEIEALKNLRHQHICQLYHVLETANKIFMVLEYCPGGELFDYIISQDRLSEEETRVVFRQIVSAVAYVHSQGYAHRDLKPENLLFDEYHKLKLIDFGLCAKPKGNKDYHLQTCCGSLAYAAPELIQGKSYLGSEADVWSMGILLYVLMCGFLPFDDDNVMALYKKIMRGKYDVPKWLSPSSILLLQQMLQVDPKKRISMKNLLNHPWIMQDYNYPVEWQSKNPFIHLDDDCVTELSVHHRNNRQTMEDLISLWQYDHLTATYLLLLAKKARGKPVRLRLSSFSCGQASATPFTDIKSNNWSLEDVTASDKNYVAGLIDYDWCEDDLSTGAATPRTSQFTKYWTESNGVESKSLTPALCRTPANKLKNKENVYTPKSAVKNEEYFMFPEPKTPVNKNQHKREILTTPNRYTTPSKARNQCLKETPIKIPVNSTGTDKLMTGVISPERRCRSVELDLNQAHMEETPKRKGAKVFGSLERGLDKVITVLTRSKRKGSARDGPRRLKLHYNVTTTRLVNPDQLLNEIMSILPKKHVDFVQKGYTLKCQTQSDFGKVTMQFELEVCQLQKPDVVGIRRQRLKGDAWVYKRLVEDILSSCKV

[5] = molecular target: PKCz (Homo sapiens (Human), UniProt Q05513); assay: Kinase profiling, 33P ATP filter binding assay; assay type: biochemical; conditions: 1 micromolar inhibitor concentration, read-out: percentage inhibition
PKCz, sequence (Q05513 whole entry): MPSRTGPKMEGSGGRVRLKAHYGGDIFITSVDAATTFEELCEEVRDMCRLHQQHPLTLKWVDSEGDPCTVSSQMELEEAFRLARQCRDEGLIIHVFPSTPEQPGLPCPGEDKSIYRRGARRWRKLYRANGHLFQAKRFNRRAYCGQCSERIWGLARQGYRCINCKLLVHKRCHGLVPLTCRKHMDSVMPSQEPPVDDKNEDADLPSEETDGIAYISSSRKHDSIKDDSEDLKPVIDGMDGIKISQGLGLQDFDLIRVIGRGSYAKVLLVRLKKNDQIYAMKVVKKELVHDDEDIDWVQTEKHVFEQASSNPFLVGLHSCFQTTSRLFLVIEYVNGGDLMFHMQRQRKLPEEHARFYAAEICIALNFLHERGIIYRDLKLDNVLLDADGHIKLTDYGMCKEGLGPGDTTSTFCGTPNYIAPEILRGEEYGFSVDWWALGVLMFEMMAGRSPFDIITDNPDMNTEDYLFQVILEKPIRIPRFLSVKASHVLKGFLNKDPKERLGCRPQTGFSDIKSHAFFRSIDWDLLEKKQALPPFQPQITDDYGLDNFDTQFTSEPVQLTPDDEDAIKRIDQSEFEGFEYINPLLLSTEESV

[6] = system: ROCK 2; conditions: 1 micromolar inhibitor concentration
Procedure: as §3

[7] = system: AMPK (hum); conditions: 1 micromolar inhibitor concentration
From the text: The ATP concentrations were at or below the calculated Km for ATP for each particular kinase.

[8] = molecular target: CLK2 (Homo sapiens (Human), UniProt P49760); assay: Kinase profiling, 33P ATP filter binding assay; assay type: biochemical; conditions: 1 micromolar inhibitor concentration, read-out: percentage inhibition
CLK2, sequence (P49760 whole entry, species assumed): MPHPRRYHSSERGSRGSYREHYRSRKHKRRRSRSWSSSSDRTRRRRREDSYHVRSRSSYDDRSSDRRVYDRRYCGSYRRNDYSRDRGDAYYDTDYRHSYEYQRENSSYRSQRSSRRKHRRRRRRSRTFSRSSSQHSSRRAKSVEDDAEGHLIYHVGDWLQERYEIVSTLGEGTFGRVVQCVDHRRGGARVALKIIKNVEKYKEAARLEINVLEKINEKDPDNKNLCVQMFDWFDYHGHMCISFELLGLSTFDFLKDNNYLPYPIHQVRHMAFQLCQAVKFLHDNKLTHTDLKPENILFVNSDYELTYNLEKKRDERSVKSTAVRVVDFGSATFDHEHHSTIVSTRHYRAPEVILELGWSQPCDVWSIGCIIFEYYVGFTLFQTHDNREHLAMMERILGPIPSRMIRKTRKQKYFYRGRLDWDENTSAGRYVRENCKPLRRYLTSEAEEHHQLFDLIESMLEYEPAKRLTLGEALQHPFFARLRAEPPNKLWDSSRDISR

[9] = molecular target: GSK3b (Homo sapiens (Human), UniProt P49841); assay: Kinase profiling, 33P ATP filter binding assay; assay type: biochemical; conditions: 1 micromolar inhibitor concentration, read-out: percentage inhibition
GSK3b, sequence (P49841 whole entry, species assumed): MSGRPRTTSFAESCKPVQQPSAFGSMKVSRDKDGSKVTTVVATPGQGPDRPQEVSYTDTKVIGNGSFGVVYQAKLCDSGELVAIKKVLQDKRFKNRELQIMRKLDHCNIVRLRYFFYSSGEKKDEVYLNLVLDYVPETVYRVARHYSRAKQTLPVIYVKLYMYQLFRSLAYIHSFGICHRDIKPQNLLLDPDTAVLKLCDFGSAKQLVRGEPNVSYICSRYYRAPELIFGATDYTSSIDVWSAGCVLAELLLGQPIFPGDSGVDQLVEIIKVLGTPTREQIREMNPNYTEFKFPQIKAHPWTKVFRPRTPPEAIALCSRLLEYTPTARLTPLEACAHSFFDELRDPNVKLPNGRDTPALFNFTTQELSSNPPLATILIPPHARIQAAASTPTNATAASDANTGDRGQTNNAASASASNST

[10] = system: PHK; conditions: 1 micromolar inhibitor concentration
Procedure: as §3

[11] = molecular target: ERK5 (Homo sapiens (Human), UniProt Q13164); assay: Kinase profiling, 33P ATP filter binding assay; assay type: biochemical; conditions: 1 micromolar inhibitor concentration, read-out: percentage inhibition
ERK5, sequence (Q13164 whole entry, species assumed): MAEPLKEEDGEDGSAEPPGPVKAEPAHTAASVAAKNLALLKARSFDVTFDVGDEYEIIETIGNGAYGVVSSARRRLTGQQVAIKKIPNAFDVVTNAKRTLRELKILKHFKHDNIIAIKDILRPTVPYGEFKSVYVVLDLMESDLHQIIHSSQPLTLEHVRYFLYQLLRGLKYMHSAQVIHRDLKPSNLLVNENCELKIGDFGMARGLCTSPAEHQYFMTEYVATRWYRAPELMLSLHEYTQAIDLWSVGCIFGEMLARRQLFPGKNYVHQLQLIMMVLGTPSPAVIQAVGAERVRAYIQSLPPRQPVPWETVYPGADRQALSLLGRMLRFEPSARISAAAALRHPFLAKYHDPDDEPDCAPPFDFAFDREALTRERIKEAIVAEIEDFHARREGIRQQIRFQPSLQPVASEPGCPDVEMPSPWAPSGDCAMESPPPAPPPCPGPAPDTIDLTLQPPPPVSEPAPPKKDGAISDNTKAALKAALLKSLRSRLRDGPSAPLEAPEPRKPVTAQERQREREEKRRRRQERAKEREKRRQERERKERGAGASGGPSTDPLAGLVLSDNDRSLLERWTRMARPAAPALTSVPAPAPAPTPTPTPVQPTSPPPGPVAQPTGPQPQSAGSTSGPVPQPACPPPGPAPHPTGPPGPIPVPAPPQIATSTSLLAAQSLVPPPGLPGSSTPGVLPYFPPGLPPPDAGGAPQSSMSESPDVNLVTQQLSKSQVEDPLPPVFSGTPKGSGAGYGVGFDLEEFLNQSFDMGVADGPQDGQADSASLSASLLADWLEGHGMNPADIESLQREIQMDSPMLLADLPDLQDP

[12] = system: tau/MAPT phosphorylation in TS21 neurons; assay: Tau/MAPT phosphorylation in TS21 neuronal cultures, Western blotting; assay type: cell-based, human; conditions: TS21 neurons
Procedure: (§1) Overexpression of DYRK1A in DS is thought to account for increased tau phosphorylation by GSK3β and the increase in DYRK1A positive neurofibrillary tangles (NFTs) in the brains of people with DS and AD. Therefore therapeutic inhibition of DYRK1A activity in DS and AD may delay the progression of neurodegeneration in DS and AD. The following experiment on reduction of tau phosphorylation by inhibition of DYRK1A by inhibitor 4-93 was performed as described in the literature (Shi, Y. et al. A human stem cell model of early Alzheimer's disease pathology in Down syndrome. Sci. Transl. Med. 4, 124ra29 (2012)).
(§2) Neuronal cultures at day 40 were treated with DYRK1A inhibitors and control compounds for 10 days. Total protein was extracted and total tau and phosphorylated tau/MAPT was quantified by Western blotting using antibodies to total tau and a number of phospho-tau epitopes.

[13] = system: tau/MAPT phosphorylation in control neurons; assay: Tau/MAPT phosphorylation in control neurons, Western blotting; assay type: cell-based, human; conditions: treated for 10 days, compared to DMSO treated controls
Procedure: as §1, §2

[14] = ten days treatment, vs DMSO treated controls or DAPT treated positive controls
[15] = treated for 10 days, normalised to β-actin, vs DMSO treated controls

EPH-B4, sequence (P54760 16-987, species assumed): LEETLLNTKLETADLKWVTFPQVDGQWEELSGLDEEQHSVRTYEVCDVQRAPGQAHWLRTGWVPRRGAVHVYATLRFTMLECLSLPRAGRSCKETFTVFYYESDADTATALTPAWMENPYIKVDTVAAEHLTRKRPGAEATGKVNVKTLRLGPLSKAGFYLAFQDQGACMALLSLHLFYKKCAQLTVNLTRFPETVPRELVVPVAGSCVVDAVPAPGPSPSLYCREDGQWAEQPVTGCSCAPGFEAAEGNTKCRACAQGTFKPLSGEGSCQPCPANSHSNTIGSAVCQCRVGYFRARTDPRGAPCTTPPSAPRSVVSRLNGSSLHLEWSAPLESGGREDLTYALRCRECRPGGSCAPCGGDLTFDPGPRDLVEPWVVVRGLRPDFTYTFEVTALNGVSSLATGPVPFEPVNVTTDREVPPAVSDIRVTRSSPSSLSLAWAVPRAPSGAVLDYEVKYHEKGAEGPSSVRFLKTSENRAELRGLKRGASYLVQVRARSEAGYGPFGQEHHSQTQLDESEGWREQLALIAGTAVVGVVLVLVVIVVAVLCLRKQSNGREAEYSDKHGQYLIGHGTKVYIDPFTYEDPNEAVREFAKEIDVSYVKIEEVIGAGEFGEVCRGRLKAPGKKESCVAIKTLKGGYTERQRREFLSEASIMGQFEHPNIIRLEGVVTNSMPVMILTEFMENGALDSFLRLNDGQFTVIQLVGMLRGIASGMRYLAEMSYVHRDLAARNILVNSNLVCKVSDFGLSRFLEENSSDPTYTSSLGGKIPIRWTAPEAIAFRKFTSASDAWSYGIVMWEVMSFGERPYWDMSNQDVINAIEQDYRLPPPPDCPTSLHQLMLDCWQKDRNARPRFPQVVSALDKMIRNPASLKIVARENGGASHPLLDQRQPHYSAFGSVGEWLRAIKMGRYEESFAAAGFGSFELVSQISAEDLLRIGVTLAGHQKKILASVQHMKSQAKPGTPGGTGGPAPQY

Structure (SMILES)	percentage inhibition [1] [%]	inhibition at 1 µM [2] [%]	inhibition at 1 µM [3] [%]	inhibition at 1 µM [4] [%]	inhibition at 1 µM [5] [%]	percentage inhibition [6] [%]	percentage inhibition [7] [%]	inhibition at 1 µM [8] [%]	inhibition at 1 µM [9] [%]	percentage inhibition [10] [%]	inhibition at 1 µM [11] [%]	phosphorylation of Ser 214 normalised to total tau levels ([12]; ten days treatment)	phosphorylated tau/MAPT at Ser 396 normalised to total tau levels [12, 14]	phosphorylated tau/MAPT at Ser 404 normalised to total tau levels [12, 14]	tau phosphorylation at Ser 396 [12, 15]	tau phosphorylation at Ser 404 [12, 15]	phosphorylation at Ser 214 ([12]; treated for 10 days, site not phosphorylated by DYRK1A)	tau/MAPT phosphorylation at Ser 396 [13]	tau/MAPT phosphorylation at Ser 404 [13]
CS(=O)(=O)Nc1cncc(-c2nc3cc(O)ccc3s2)c1 [4-99, N-(5-(5-Hydroxybenzo[d]thiazol-2-yl)pyridin-3-yl)methanesulfonamide]	0	0	0	0	0	0	0	44	0	0	7								
COc1ccc2sc(-c3cncc(NC(C)=O)c3)nc2c1 [4-93, N-(5-(5-Methoxybenzo[d]thiazol-2-yl)pyridin-3-yl)acetamide]		0	0	1	0						28	unaffected	significantly lower	significantly lower	significantly reduced	significantly reduced	do not affect	slight increase	slight increase
